In BindingDB's records for doi:10.1016/j.ejmech.2021.113362 (The First Affiliated Hospital of Wenzhou Medical University, 2021):
pIC50: −log10 of the molar value.

Target: Signal transducer and activator of transcription 3 (Homo sapiens, UniProt P40763)
Test: Inhibition of STAT3 phosphorylation in human MDA-MB-231 cells by sandwich ELISA

Chain of Signal transducer and activator of transcription 3 (P40763 whole entry): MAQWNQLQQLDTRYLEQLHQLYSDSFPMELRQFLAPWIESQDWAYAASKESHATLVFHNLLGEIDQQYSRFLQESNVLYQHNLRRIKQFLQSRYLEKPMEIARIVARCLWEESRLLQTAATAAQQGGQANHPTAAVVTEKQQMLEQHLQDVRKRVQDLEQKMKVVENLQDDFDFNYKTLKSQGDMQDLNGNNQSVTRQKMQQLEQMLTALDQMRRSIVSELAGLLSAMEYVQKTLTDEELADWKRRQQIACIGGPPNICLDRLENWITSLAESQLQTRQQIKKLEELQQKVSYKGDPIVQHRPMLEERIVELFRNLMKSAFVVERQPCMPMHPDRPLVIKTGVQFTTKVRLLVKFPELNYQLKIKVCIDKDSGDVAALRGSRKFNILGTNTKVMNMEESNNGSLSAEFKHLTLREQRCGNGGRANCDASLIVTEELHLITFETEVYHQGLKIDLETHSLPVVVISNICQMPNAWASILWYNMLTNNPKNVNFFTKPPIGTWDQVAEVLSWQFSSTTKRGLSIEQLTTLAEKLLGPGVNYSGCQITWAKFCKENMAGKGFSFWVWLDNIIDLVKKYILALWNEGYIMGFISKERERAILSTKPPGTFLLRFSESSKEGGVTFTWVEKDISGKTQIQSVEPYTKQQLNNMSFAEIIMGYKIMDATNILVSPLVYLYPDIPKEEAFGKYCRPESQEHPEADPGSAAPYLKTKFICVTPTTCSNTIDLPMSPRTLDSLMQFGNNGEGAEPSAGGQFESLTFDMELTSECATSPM

Row | pIC50 | Structure (SMILES)
1 | 6.04 | CC(C)(C)OC(=O)c1ccc(NC(=O)c2cccc(S(N)(=O)=O)c2)cc1
2 | 6.68 | O=C(Nc1ccc([N+](=O)[O-])cc1Cl)c1cc(Cl)ccc1O [5-chloro-N-(2-chloro-4-nitrophenyl)-2-hydroxybenzamide]
3 | 6.64 | CC(C)(C)OC(=O)c1ccc(NC(=O)c2ccc(Cl)c(S(N)(=O)=O)c2)cc1
4 | 6.14 | COc1cc(NC(=O)c2ccc(Cl)c(S(N)(=O)=O)c2)cc(OC)c1OC
